# Measurements as given in patent US20250136576A1, “Heterocyclic Compounds and Uses Thereof” (ACEA Therapeutics, Inc., priority 2021, published 2025).
# Tested on: KM12-luc cells
# Assay: Cell proliferation and growth inhibition assay (CCK-8) in KM12-luc
# Format: cell-based
# Conditions: KM12-Luc, 72 h, KM12-luc cells, treated with test compounds for 72 hrs, CCK-8 viability; read-out: NTRK IC50 in KM12-luc
# Summary of the method: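 IC50 values were fitted by sigmoidal dose-response non-linear regression of CCK-8 OD450 absorbance after 1-4 hrs with reagent. Culture media were IMDM for MV-4-11, RPMI 1640 for H1975 and DMEM for KM12-luc, each with 10% FBS at 37 °C, 5% CO2.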
row,Structure (SMILES),IC50
1,"CN(C)[C@H]1CCN(c2ccc(Nc3ncc(C(F)(F)F)c(-c4cn(C)c5c(F)cccc45)n3)cc2N)C1 [Compound S-354, (S)-4-(3-(dimethylamino)pyrrolidin-1-yl)-N^1-(4-(7-fluoro-1-methyl-1H-indol-3-yl)-5-(trifluoromethyl)pyrimidin-2-yl)benzene-1,3-diamine]",56.3 nM
2,"CC(=O)Nc1cc(Nc2ncc(C(F)(F)F)c(-c3cn(C)c4c(C)cccc34)n2)ccc1OCCN(C)C [Compound 372, N-(5-((4-(1,7-dimethyl-1H-indol-3-yl)-5-(trifluoromethyl)pyrimidin-2-yl)amino)-2-(2-(dimethylamino)ethoxy)phenyl)acetamide]",30.2 nM
3,"COCCCN(C)c1cc(N2CCN(C)CC2)ccc1C(=O)Nc1c[nH]c2ccc(Nc3cc(F)cc(F)c3)cc12 [Compound 501, N-(5-((3,5-difluorophenyl)amino)-1H-indol-3-yl)-2-((3-methoxypropyl)(methyl)amino)-4-(4-methylpiperazin-1-yl)benzamide]",> 1000 nM
4,"CC(=O)Nc1cc(Nc2nc(-c3cn(C)c4cccc(F)c34)c3cc[nH]c3n2)ccc1N(C)CCN(C)C [Compound 218, N-(2-((2-(dimethylamino)ethyl)(methyl)amino)-5-((4-(4-fluoro-1-methyl-1H-indol-3-yl)-7H-pyrrolo[2,3-d]pyrimidin-2-yl)amino)phenyl)acetamide]",103 nM
5,"COc1cccc2c(-c3nc(Nc4ccc5c(c4)nc(C)n5CCN(C)C)ncc3C(F)(F)F)cn(C)c12 [Compound 387, 1-(2-(dimethylamino)ethyl)-N-(4-(7-methoxy-1-methyl-1H-indol-3-yl)-5-(trifluoromethyl)pyrimidin-2-yl)-2-methyl-1H-benzo[d]imidazol-5-amine]",114 nM
6,"CC(=O)Nc1cc(Nc2ncc(Cl)c(-c3cn(C)c4ccccc34)n2)ccc1NC(=O)CCN(C)C [Compound 408, N-(2-acetamido-4-((5-chloro-4-(1-methyl-1H-indol-3-yl)pyrimidin-2-yl)amino)phenyl)-3-(dimethylamino)propanamide]",19.7 nM
7,"CN(C)CCN(C)c1ccc(Nc2ncc(C(F)(F)F)c(-c3c[nH]c4cccc(F)c34)n2)cc1N [Compound 317, N^1-(2-(dimethylamino)ethyl)-N^4-(4-(4-fluoro-1H-indol-3-yl)-5-(trifluoromethyl)pyrimidin-2-yl)-N^1-methylbenzene-1,2,4-triamine]",24.9 nM
8,"Cc1nc2cc(Nc3ncc(C(F)(F)F)c(-c4cn(C)c5ccccc45)n3)ccc2n1CCN(C)C [Compound 314b, 1-(2-(dimethylamino)ethyl)-2-methyl-N-(4-(1-methyl-1H-indol-3-yl)-5-(trifluoromethyl)pyrimidin-2-yl)-1H-benzo[d]imidazol-5-amine]",139 nM
9,"CCN(CCN(C)C)c1c(F)cc(Nc2ncc(Cl)c(-c3cn(C)c4ccccc34)n2)cc1NC(C)=O [Compound 398, N-(5-((5-chloro-4-(1-methyl-1H-indol-3-yl)pyrimidin-2-yl)amino)-2-((2-(dimethylamino)ethyl)(ethyl)amino)-3-fluorophenyl)acetamide]",196 nM
10,"Cc1ccc2[nH]cc(-c3nc(Nc4ccc(N(C)CCN(C)C)c(N(C)C)c4)nc4[nH]ccc34)c2c1 [Compound 239, N^1-(2-(dimethylamino)ethyl)-N^1,N^2,N^2-trimethyl-N^4-(4-(5-methyl-1H-indol-3-yl)-7H-pyrrolo[2,3-d]pyrimidin-2-yl)benzene-1,2,4-triamine]",518 nM
11,"CC(=O)Nc1cc(Nc2ncc(F)c(-c3cn(C)c4cc(F)ccc34)n2)ccc1N(C)CCN(C)C [Compound 267, N-(2-((2-(dimethylamino)ethyl)(methyl)amino)-5-((5-fluoro-4-(6-fluoro-1-methyl-1H-indol-3-yl)pyrimidin-2-yl)amino)phenyl)acetamide]",303 nM
12,"Cc1nc2ccc(Nc3ncc(Cl)c(-c4c[nH]c5ccccc45)n3)cc2[nH]1 [Compound 394b, N-(5-chloro-4-(1H-indol-3-yl)pyrimidin-2-yl)-2-methyl-1H-benzo[d]imidazol-6-amine]",131 nM
13,"CCN(CCN(C)C)c1ccc(Nc2ncc(C(F)(F)F)c(-c3cn(C)c4c(F)cccc34)n2)cc1N [Compound 349, N^1-(2-(dimethylamino)ethyl)-N^1-ethyl-N^4-(4-(7-fluoro-1-methyl-1H-indol-3-yl)-5-(trifluoromethyl)pyrimidin-2-yl)benzene-1,2,4-triamine]",245 nM
14,"CN(C)CCN(C)c1ccc(Nc2nc(-c3cn(C)c4ccccc34)c3cc[nH]c3n2)cc1N [Compound 204, N^1-(2-(dimethylamino)ethyl)-N^1-methyl-N^4-(4-(1-methyl-1H-indol-3-yl)-7H-pyrrolo[2,3-d]pyrimidin-2-yl)benzene-1,2,4-triamine]",45.8 nM
15,"CC(=O)Nc1cc(Nc2ncc(C(F)(F)F)c(-c3cn(C)c4c(F)cccc34)n2)ccc1N1CC[C@H](N(C)C)C1 [Compound S-353, (S)—N-(2-(3-(dimethylamino)pyrrolidin-1-yl)-5-((4-(7-fluoro-1-methyl-1H-indol-3-yl)-5-(trifluoromethyl)pyrimidin-2-yl)amino)phenyl)acetamide]",35.2 nM
16,"CN(C)CCN(C)c1ccc(C(=O)Nc2c[nH]c3ccc(Cc4cc(F)cc(F)c4)cc23)c(NC2CCOCC2)c1 [Compound 507, N-(5-(3,5-difluorobenzyl)-1H-indol-3-yl)-4-(2-(dimethylamino)ethyl)(methylamino)-2-((tetrahydro-2H-pyran-4-yl)amino) benzamide]",> 1000 nM
17,"CC(=O)Nc1cc(Nc2ncc(Cl)c(-c3cn(C)c4c(F)cccc34)n2)ccc1N1CC[C@@H](N(C)C)C1 [Compound R-415, (R)—N-(5-((5-chloro-4-(7-fluoro-1-methyl-1H-indol-3-yl)pyrimidin-2-yl)amino)-2-(3-(dimethylamino)pyrrolidin-1-yl)phenyl)acetamide]",66.7 nM
18,"Cc1cccc2c(-c3nc(Nc4ccc5c(c4)nc(C)n5CCN(C)C)ncc3C(F)(F)F)c[nH]c12 [Compound 364, 1-(2-(dimethylamino)ethyl)-2-methyl-N-(4-(7-methyl-1H-indol-3-yl)-5-(trifluoromethyl)pyrimidin-2-yl)-1H-benzo[d]imidazol-5-amine]",20.1 nM
19,"CC(=O)Nc1cc(Nc2nc(-c3cn(C)c4ccccc34)c3occc3n2)cc(F)c1N(C)CCN(C)C [Compound 256b, N-(2-((2-(dimethylamino)ethyl) (methyl)amino)-3-fluoro-5-((4-(1-methyl-1H-indol-3-yl)furo[3,2-d]pyrimidin-2-yl)amino)phenyl) acetamide]",748 nM
20,"CC(=O)Nc1cc(Nc2ncc(Cl)c(-c3cn(C)c4ccccc34)n2)cc(F)c1N1CCC(N(C)C)C1 (centres unmarked) [Compound 401, N-(5-((5-chloro-4-(1-methyl-1H-indol-3-yl)pyrimidin-2-yl)amino)-2-(3-(dimethylamino)pyrrolidin-1-yl)-3-fluorophenyl)acetamide]",49.5 nM
21,"CC(=O)Nc1cc(Nc2ncc(F)c(-c3c[nH]c4cc(F)ccc34)n2)ccc1N(C)CCN(C)C [Compound 266, N-(2-((2-(dimethylamino)ethyl)(methyl)amino)-5-((5-fluoro-4-(6-fluoro-1H-indol-3-yl)pyrimidin-2-yl)amino)phenyl)acetamide]",764 nM
22,"CCn1cc(-c2nc(Nc3ccc(N(C)CCN(C)C)c(NC(C)=O)c3)ncc2C(F)(F)F)c2cc(F)ccc21 [Compound 391, N-(2-((2-(dimethylamino)ethyl)(methyl)amino)-5-((4-(1-ethyl-5-fluoro-1H-indol-3-yl)-5-(trifluoromethyl)pyrimidin-2-yl)amino)phenyl)acetamide]",50 nM
23,"COc1cnc(Nc2ccc(N3CC[C@@H](N(C)C)C3)c(NC(C)=O)c2)nc1-c1c[nH]c2c(OC)cccc12 [Compound R-288, (R)—N-(2-(3-(dimethylamino)pyrrolidin-1-yl)-5-((5-methoxy-4-(7-methoxy-1H-indol-3-yl)pyrimidin-2-yl)amino)phenyl)acetamide]",15.5 nM
24,"CCN(CCN(C)C)c1ccc(Nc2nc(-c3c[nH]c4cc(F)ccc34)ncc2C(F)(F)F)cc1NC(C)=O [Compound 331b, N-(2-((2-(dimethylamino)ethyl)(ethyl)amino)-5-((2-(6-fluoro-1H-indol-3-yl)-5-(trifluoromethyl)pyrimidin-4-yl)amino)phenyl)acetamide]",2020 nM
25,"CC(=O)Nc1cc(Nc2ncc(Cl)c(-c3cn(C)c4c(C)cccc34)n2)ccc1N(C)CCN(C)C [Compound 429, N-(5-((5-chloro-4-(1,7-dimethyl-1H-indol-3-yl)pyrimidin-2-yl)amino)-2-((2-(dimethylamino)ethyl)(methyl)amino)phenyl)acetamide]",475 nM
26,"CN(C)[C@@H]1CCN(c2ccc(Nc3ncc(C(F)(F)F)c(-c4cn(C)c5c(F)cccc45)n3)cc2N)C1 [Compound R-354, (R)-4-(3-(dimethylamino)pyrrolidin-1-yl)-N^1-(4-(7-fluoro-1-methyl-1H-indol-3-yl)-5-(trifluoromethyl)pyrimidin-2-yl)benzene-1,3-diamine]",69.1 nM
27,"CN(C)CCN(C)c1ccc(Nc2ncc(Cl)c(-c3cn(C)c4c(F)cccc34)n2)cc1N [Compound 417, N^4-(5-chloro-4-(7-fluoro-1-methyl-1H-indol-3-yl)pyrimidin-2-yl)-N^1-(2-(dimethylamino)ethyl)-N^1-methylbenzene-1,2,4-triamine]",94.2 nM

# Same assay, conditions: KM12-Luc, 72 h, read-out: NTRK IC50 in KM12-luc
row,Structure (SMILES),IC50
1,"CCNc1cc(Nc2nc(-c3cn(C)c4cc(F)ccc34)c3cc[nH]c3n2)ccc1N(C)CCN(C)C [Compound 232b, N^1-(2-(dimethylamino)ethyl)-N^2-ethyl-N^4-(4-(6-fluoro-1-methyl-1H-indol-3-yl)-7H-pyrrolo[2,3-d]pyrimidin-2-yl)-N^1-methylbenzene-1,2,4-triamine]",492 nM
2,"CCNc1cc(Nc2nc(-c3cn(C)c4ccccc34)c3cc[nH]c3n2)ccc1N(CC)CCN(C)C [Compound 212f, N^1-(2-(dimethylamino)ethyl)-N^1,N^2-diethyl-N^4-(4-(1-methyl-1H-indol-3-yl)-7H-pyrrolo[2,3-d]pyrimidin-2-yl)benzene-1,2,4-triamine]",546 nM
